Measurements taken from article PMC6112128, “Discovery and characterization of the tubercidin biosynthetic pathway from Streptomyces tubercidicus NBRC 13090” (Microbial Cell Factories, 2018).

Legend:
[1] = target: T1, TubE (Streptomyces tubercidicus, UniProt A0A384YVR8); assay: HPLC and LC-MS product detection; product NMR; assay type: biochemical; conditions: 1 mM CDG, 2 mM PRPP, 5 mM MgCl2, 1 mM DTT, 100 mM PBS pH 7.5, 30 °C, 8 h
T1 construct: gene Stube_10250; full-length, 194 aa, His6-tagged (pET28a NdeI-EcoRI), E. coli Rosetta (DE3)/pLysS
T1 sequence (A0A384YVR8 1-194): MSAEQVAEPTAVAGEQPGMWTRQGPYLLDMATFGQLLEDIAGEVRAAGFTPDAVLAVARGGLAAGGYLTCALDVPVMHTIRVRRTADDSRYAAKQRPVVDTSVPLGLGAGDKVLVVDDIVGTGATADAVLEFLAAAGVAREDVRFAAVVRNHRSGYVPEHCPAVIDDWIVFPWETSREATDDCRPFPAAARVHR

[2] = target: T2, TubD (Streptomyces tubercidicus, UniProt A0A384YXG2); assay: LC-MS detection of IMP; assay type: biochemical; conditions: 1 mM NADPH, 1 mM GMP, 50 mM KCl, 1 mM DTT, 2 mM EDTA, 100 mM Tris-HCl pH 7.5, 30 °C, 4 h
T2 construct: gene Stube_10260; full-length, 385 aa, His6-tagged (pET28a NdeI-EcoRI), E. coli Rosetta (DE3)/pLysS
T2 sequence (A0A384YXG2 1-385): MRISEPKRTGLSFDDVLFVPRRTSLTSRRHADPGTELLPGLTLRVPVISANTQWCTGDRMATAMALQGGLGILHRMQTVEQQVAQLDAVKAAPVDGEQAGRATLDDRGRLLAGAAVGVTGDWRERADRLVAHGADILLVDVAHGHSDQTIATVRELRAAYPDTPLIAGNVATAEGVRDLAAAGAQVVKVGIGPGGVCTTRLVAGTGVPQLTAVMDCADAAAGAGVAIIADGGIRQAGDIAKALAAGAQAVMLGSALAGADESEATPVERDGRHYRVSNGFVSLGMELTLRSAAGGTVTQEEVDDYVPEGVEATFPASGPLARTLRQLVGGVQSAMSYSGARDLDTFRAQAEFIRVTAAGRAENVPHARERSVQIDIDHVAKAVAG

| Structure (SMILES) | HPLC and LC-MS product detection; product NMR [1] | LC-MS detection of IMP [2] |
| --- | --- | --- |
| Nc1nc2[nH]cc(C(=O)O)c2c(=O)[nH]1 [CDG] | all of the data demonstrate that TubE functions as a CDG-specific phosphoribosyltransferase |  |
| O=P(O)(O)OC[C@H]1O[C@H](OP(=O)(O)OP(=O)(O)O)[C@H](O)[C@@H]1O [PRPP] | HPLC profile of the TubE reaction using PRPP and CDG as substrates |  |
| NC(=O)C1=CN([C@@H]2O[C@H](COP(=O)(O)OP(=O)(O)OC[C@H]3O[C@@H](n4cnc5c(N)ncnc54)[C@H](OP(=O)(O)O)[C@@H]3O)[C@@H](O)[C@H]2O)C=CC1 [NADPH] |  | this cofactor could not replace NADPH to supply reducing equivalents for the TubD reaction |
